In patent US10821115B2, “Compounds that inhibit Mcl-1 protein” (priority 2017, dated 2020):

Legend:
[1] = molecular target: recombinant human Mcl-1 (residues 171-327) / Bim interaction (Homo sapiens (Human), UniProt Q07820); test: biochemical; type: binding; settings: 0.1 nM Mcl-1(171-327), 0.05 nM biotin-Bim (51-76); read-out: Mcl-1 HTRF IC50
[2] = test system: human multiple myeloma cell line, OPM-2; test: Cell viability assay (OPM-2 10 FBS), CellTiter-Glo; type: cell-based; settings: Homo sapiens, OPM-2, 16 h, read-out: OPM-2 10% FBS IC50 IP, OPM-2 cells, 10% FBS, 16 h incubation
Method in brief: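 3000 cells/well, RPMI 1640 + 10% FBS; serial compound dilutions, 16 h, 37 °C/5% CO2.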

recombinant human Mcl-1 (residues 171-327) / Bim interaction, sequence (Q07820 171-327): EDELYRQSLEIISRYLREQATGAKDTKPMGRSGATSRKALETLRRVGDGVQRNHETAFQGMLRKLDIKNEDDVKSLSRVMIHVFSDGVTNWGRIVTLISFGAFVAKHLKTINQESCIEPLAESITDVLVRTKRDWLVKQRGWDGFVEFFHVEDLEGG

| Structure (SMILES) | IC50 [1] | IC50 [2] |
| --- | --- | --- |
| COCCN(C)C1CN(C[C@@]2(OC)/C=C/C[C@H](C)[C@@H](C)S(=O)(=O)NC(=O)c3ccc4c(c3)N(C[C@@H]3CC[C@H]32)C[C@@]2(CCCc3cc(Cl)ccc32)CO4)C1 [Example 94, (1S,3′R,6′R,7′R,8′E,11′S,12′R)-6-chloro-7′-methoxy-7′-((3-((2-methoxyethyl)(methyl)amino)-1-azetidinyl)methyl)-11′,12′-dimethyl-3,4-dihydro-2H,15′H-spiro[naphthalene-1,22′-[20]oxa[13]thia[1,14]diazatetracyclo [14.7.2.0~3,6~.0~19,24~]pentacosa[8,16,18,24]tetraen]-15′-one 13′,13′-dioxide] | 0.191 nM | 140 nM |
| CO[C@]1(CN2CCN(CC(F)F)CC2)/C=C/C[C@H](C)[C@@H](C)S(=O)(=O)NC(=O)c2ccc3c(c2)N(C[C@@H]2CC[C@H]21)C[C@@]1(CCCc2cc(Cl)ccc21)CO3 [Example 95, (1S,3′R,6′R,7′R,8′E,11′S,12′R)-6-chloro-7′-((4-(2,2-difluoroethyl)-1-piperazinyl)methyl)-7′-methoxy-11′,12′-dimethyl-3,4-dihydro-2H,15′H-spiro[naphthalene-1,22′-[20]oxa[13]thia[1,14]diazatetracyclo [14.7.2.0~3,6~.0~19,24~]pentacosa[8,16,18,24]tetraen]-15′-one 13′,13′-dioxide] | 0.189 nM | 338 nM |
| CO[C@]1(CN2CCN(CCF)CC2)/C=C/C[C@H](C)[C@@H](C)S(=O)(=O)NC(=O)c2ccc3c(c2)N(C[C@@H]2CC[C@H]21)C[C@@]1(CCCc2cc(Cl)ccc21)CO3 [Example 96, (1S,3′R,6′R,7′R,8′E,11′S,12′R)-6-chloro-7′-((4-(2-fluoroethyl)-1-piperazinyl)methyl)-7′-methoxy-11′,12′-dimethyl-3,4-dihydro-2H,15′H-spiro[naphthalene-1,22′-[20]oxa[13]thia[1,14]diazatetracyclo [14.7.2.0~3,6~.0~19,24~]pentacosa[8,16,18,24]tetraen]-15′-one 13′,13′-dioxide] | 0.114 nM | 111 nM |
| CCCN1CCN(C[C@@]2(OC)/C=C/C[C@H](C)[C@@H](C)S(=O)(=O)NC(=O)c3ccc4c(c3)N(C[C@@H]3CC[C@H]32)C[C@@]2(CCCc3cc(Cl)ccc32)CO4)CC1 [Example 97, (1S,3′R,6′R,7′R,8′E,11′S,12′R)-6-chloro-7′-methoxy-11′,12′-dimethyl-7′-((4-propyl-1-piperazinyl)methyl)-3,4-dihydro-2H,15′H-spiro[naphthalene-1,22′-[20]oxa[13]thia[1,14]diazatetracyclo [14.7.2.0~3,6~.0~19,24~]pentacosa[8,16,18,24]tetraen]-15′-one 13′,13′-dioxide] | 0.299 nM | 228 nM |
| CCCN1CCN(C[C@@]2(OCC)/C=C/C[C@H](C)[C@@H](C)S(=O)(=O)NC(=O)c3ccc4c(c3)N(C[C@@H]3CC[C@H]32)C[C@@]2(CCCc3cc(Cl)ccc32)CO4)CC1 [Example 98, (1S,3′R,6′R,7′R,8′E,11′S,12′R)-6-chloro-7′-ethoxy-11′,12′-dimethyl-7′-((4-propyl-1-piperazinyl)methyl)-3,4-dihydro-2H,15′H-spiro[naphthalene-1,22′-[20]oxa[13]thia[1,14]diazatetracyclo [14.7.2.0~3,6~.0~19,24~]pentacosa[8,16,18,24]tetraen]-15′-one 13′,13′-dioxide] | 0.373 nM | 183 nM |
| CCO[C@@]1(CN2CCN3CCOC[C@@H]3C2)/C=C/C[C@H](C)[C@@H](C)S(=O)(=O)NC(=O)c2ccc3c(c2)N(C[C@@H]2CC[C@H]21)C[C@@]1(CCCc2cc(Cl)ccc21)CO3 [Example 101, (1S,3′R,6′R,7′S,8′E,11′S,12′R)-6-chloro-7′-ethoxy-7′-((9aS)-hexahydropyrazino[2,1-c][1,4]oxazin-8(1H)-ylmethyl)-11′,12′-dimethyl-3,4-dihydro-2H,15′H-spiro[naphthalene-1,22′-[20]oxa[13]thia[1,14]diazatetracyclo [14.7.2.0~3,6~.0~19,24~]pentacosa[8,16,18,24]tetraen]-15′-one 13′,13′-dioxide] | 0.196 nM | 263 nM |
| CCO[C@@]1(CN2CCN(C3COC3)CC2)/C=C/C[C@H](C)[C@@H](C)S(=O)(=O)NC(=O)c2ccc3c(c2)N(C[C@@H]2CC[C@H]21)C[C@@]1(CCCc2cc(Cl)ccc21)CO3 [Example 106, (1S,3′R,6′R,7′S,8′E,11′S,12′R)-6-chloro-7′-ethoxy-11′12′-dimethyl-7′-((4-(3-oxetanyl)-1-piperazinyl)methyl)-3,4-dihydro-2H,15′H-spiro[naphthalene-1,22′-[20]oxa[13]thia[1,14]diazatetracyclo [14.7.2.0~3,6~.0~19,24~]pentacosa[8,16,18,24]tetraen]-15′-one 13′,13′-dioxide] | 0.299 nM | 308 nM |
| CCO[C@@]1(CN2CCN3CCCC[C@@H]3C2)/C=C/C[C@H](C)[C@@H](C)S(=O)(=O)NC(=O)c2ccc3c(c2)N(C[C@@H]2CC[C@H]21)C[C@@]1(CCCc2cc(Cl)ccc21)CO3 [Example 107, (1S,3′R,6′R,7′S,8′E,11′S,12′R)-6-chloro-7′-ethoxy-11′,12′-dimethyl-7′-((9aR)-octahydro-2H-pyrido[1,2-a]pyrazin-2-ylmethyl)-3,4-dihydro-2H,15′H-spiro[naphthalene-1,22′-[20]oxa[13]thia[1,14]diazatetracyclo [14.7.2.0~3,6~.0~19,24~]pentacosa[8,16,18,24]tetraen]-15′-one 13′,13′-dioxide] | 1.14 nM | 872 nM |
| CCO[C@]1(CN2CCN3CCCC[C@@H]3C2)/C=C/C[C@H](C)[C@@H](C)S(=O)(=O)NC(=O)c2ccc3c(c2)N(C[C@@H]2CC[C@H]21)C[C@@]1(CCCc2cc(Cl)ccc21)CO3 [Example 108, (1S,3′R,6′R,7′R,8′E,11′S,12′R)-6-chloro-7′-ethoxy-11′,12′-dimethyl-7′-((9aR)-octahydro-2H-pyrido[1,2-a]pyrazin-2-ylmethyl)-3 ,4-dihydro-2H,15′H-spiro[naphthalene-1,22′-[20]oxa[13]thia[1,14]diazatetracyclo [14.7.2.0~3,6~.0~19,24~]pentacosa[8,16,18,24]tetraen]-15′-one 13′,13′-dioxide] | 0.198 nM | 116 nM |
| CCO[C@@]1(CN2CCC3(CC2)COC3)/C=C/C[C@H](C)[C@@H](C)S(=O)(=O)NC(=O)c2ccc3c(c2)N(C[C@@H]2CC[C@H]21)C[C@@]1(CCCc2cc(Cl)ccc21)CO3 [Example 109, (1S,3′R,6′R,7′S,8′E,11′S,12′R)-6-chloro-7′-ethoxy-11′,12′-dimethyl-7′-(2-oxa-7-azaspiro[3,5]non-7-ylmethyl)-3,4-dihydro-2H,15′H-spiro[naphthalene-1,22′-[20]oxa[13]thia[1,14]diazatetracyclo [14.7.2.0~3,6~.0~19,24~]pentacosa[8,16,18,24]tetraen]-15′-one 13′,13′-dioxide] | 1.04 nM | 916 nM |
| CCO[C@@]1(CN2CCC(N(C)C)CC2)/C=C/C[C@H](C)[C@@H](C)S(=O)(=O)NC(=O)c2ccc3c(c2)N(C[C@@H]2CC[C@H]21)C[C@@]1(CCCc2cc(Cl)ccc21)CO3 [Example 110, (1S,3′R,6′R,7′S,8′E,11′S,12′R)-6-chloro-7′-((4-(dimethylamino)-1-piperidinyl)methyl)-7′-ethoxy-11′,12′-dimethyl-3,4-dihydro-2H,15′H-spiro[naphthalene-1,22′-[20]oxa[13]thia[1,14]diazatetracyclo [14.7.2.0~3,6~.0~19,24~]pentacosa[8,16,18,24]tetraen]-15′-one 13′,13′-dioxide] | 0.505 nM | 1720 nM |
| CCO[C@@]1(CN2CCN(C(COC)COC)CC2)/C=C/C[C@H](C)[C@@H](C)S(=O)(=O)NC(=O)c2ccc3c(c2)N(C[C@@H]2CC[C@H]21)C[C@@]1(CCCc2cc(Cl)ccc21)CO3 [Example 111, (1S,3′R,6′R,7′S,8′E,11′S,12′R)-6-chloro-7′-ethoxy-7′-((4-(2-methoxy-1-(methoxymethyl)ethyl)-1-piperazinyl)methyl)-11′,12′-dimethyl-3,4-dihydro-2H,15′H-spiro[naphthalene-1,22′-[20]oxa[13]thia[1,14]diazatetracyclo [14.7.2.0~3,6~.0~19,24~]pentacosa[8,16,18,24]tetraen]-15′-one 13′,13′-dioxide] | 0.362 nM | 301 nM |
| CCO[C@@]1(CN2CCN(CC)CC2)/C=C/C[C@H](C)[C@@H](C)S(=O)(=O)NC(=O)c2ccc3c(c2)N(C[C@@H]2CC[C@H]21)C[C@@]1(CCCc2cc(Cl)ccc21)CO3 [Example 112, (1S,3′R,6′R,7′S,8′E,11′S,12′R)-6-chloro-7′-ethoxy-7′-((4-ethyl-1-piperazinyl)methyl)-11′,12′-dimethyl-3,4-dihydro-2H,15′H-spiro[naphthalene-1,22′-[20]oxa[13]thia[1,14]diazatetracyclo [14.7.2.0~3,6~.0~19,24~]pentacosa[8,16,18,24]tetraen]-15′-one 13′,13′-dioxide] | 0.617 nM | 654 nM |
| CCO[C@@]1(CN2CCC(OC)CC2)/C=C/C[C@H](C)[C@@H](C)S(=O)(=O)NC(=O)c2ccc3c(c2)N(C[C@@H]2CC[C@H]21)C[C@@]1(CCCc2cc(Cl)ccc21)CO3 [Example 113, (1S,3′R,6′R,7′S,8′E,11′S,12′R)-6-chloro-7′-ethoxy-7′-((4-methoxy-1-piperidinyl)methyl)-11′,12′-dimethyl-3,4-dihydro-2H,15′H-spiro[naphthalene-1,22′-[20]oxa[13]thia[1,14]diazatetracyclo [14.7.2.0~3,6~.0~19,24~]pentacosa[8,16,18,24]tetraen]-15′-one 13′,13′-dioxide] | 1.19 nM | 1330 nM |
